Reference: patent US11192863B2, “Antiviral compounds and methods” (Biotron Limited, priority 2003, dated 2021)
pEC50: −log10 of the molar value. Read-outs that look alike come from different tables or passages of the source.

Assays:
HIV = format: cell-based; conditions: for At least 1x log reduction seen in p24 assay?: Table 19b, yes/no
SARS-CoV E protein = SARS-CoV E protein (Severe acute respiratory syndrome coronavirus, UniProt P59637); format: cell-based
[1] = system: porcine respiratory coronavirus (PRCV) strain AR310; assay: PRCV plaque assay in ST cells; format: cell-based; conditions: Alphacoronavirus 1; PRCV plaques in ST cells
bovine coronavirus (BCV) = assay: BCV plaque assay in MDBK cells; format: cell-based; conditions: Betacoronavirus 1; BCV plaques in MDBK cells
Vpu protein = Vpu protein (Human immunodeficiency virus type 1 group M subtype B, UniProt P05919); conditions: for Vpu Inhibition (score/# of times tested): halo of growth score between zero and six, XL1-blue E. coli with pPL-Vpu, no adenine, 37° C.
MHV (strain MHV-A59) = conditions: L929 cells
229E-CoV E-protein = 229E-CoV E-protein (Human coronavirus 229E, UniProt P19741); assay: Bacterial bio-assay for 229E-CoV E-protein; conditions: halo of growth score; E. coli expressing E protein at 37° C.
human coronavirus OC43 = assay: microbe, parasite or virus in culture; format: cell-based; conditions: Betacoronavirus 1, OC43, MRC5, 120 h, MRC-5 cells, 5 days post infection
[2] = Table 19a, rank among 12 compounds, 1 = highest score

Compound	At least 1x log reduction seen in p24 assay? (HIV)	SARS E protein Inhibition (score/# of times tested) (SARS-CoV E protein)	pEC50 [1]	pEC50 (bovine coronavirus (BCV))	Bacterial assay rank order (Vpu protein; [2])	Bacterial assay rank order (Vpu protein; Table 19b)	Vpu Bacterial score (Vpu protein; Table 19b)	Vpu Inhibition (score/# of times tested) (Vpu protein)	Percent reduction in Plaque number/# experiments (MHV (strain MHV-A59); 1 uM)	Percent reduction in Plaque number/# experiments (MHV (strain MHV-A59); 10 uM)	Percent reduction in Plaque number/# experiments (MHV (strain MHV-A59); 20 uM)	229E E protein Inhibition (score) (229E-CoV E-protein)	Percent of Positive Control (HIV; Drug Conc. 0.625 μM) [%]	Percent of Positive Control (HIV; Drug Conc. 1.25 μM) [%]	Percent of Positive Control (HIV; Drug Conc. 2.5 μM) [%]	Percent of Positive Control (HIV; Drug Conc. 5 μM) [%]	Percent of Positive Control (HIV; Drug Conc. 10 μM) [%]	inhibition at 2.5 µM (human coronavirus OC43) [%]
N=C(N)NC(=O)Cc1ccc2ccccc2c1 [2-(2-napthyl)acetoylguanidine]	no	0.71/1 score	3.92	4.00	11	11	1.2	1.19/2 score	23/1%	20/2%	52/1%	0.1						
N=C(N)NC(=O)/C=C/c1cccc(C(F)(F)F)c1 [3-(trifluoromethyl)cinnamoylguanidine]	yes	2.67/1 score		5.52	2	2	3.7	3.7/2 score	40/1%	83/1%	98/1%	2.3	38	27	25	8	11	84
Cc1cccc(/C=C/C(=O)NC(=N)N)c1 [3-methylcinnamoylguanidine]	yes	1.00/1 score	5.84		3	3	3.4	3.4/2 score	39/1%	88/1%	90/1%	0.5						100
NC(N)=NC(=O)/C=C/C=C/c1ccccc1 [(5-Phenyl-penta-2,4-dienoyl)guanidine]	no	0.44/2 score		4.02	8	8	2.6	2.56/2 score	17/1%	24/1%	27/1%	1.8						9
N=C(N)NC(=O)C1CC1c1ccccc1 (stereo not drawn) [(trans-2-Phenylcyclopropanecarbonyl)guanidine]	no	1.34/3 score	4.76	3.96	12	12	0.4	0.4/2 score	31/2%	64/2%	77/2%	0.8						71
N=C(NC(=O)CCc1ccccc1)Nc1ccccc1 [N-(3-phenylpropanoyl)-N′-phenylguanidine]	no	1.57/2 score	4.72	3.81	9	9	2.2	2.21/3 score	43/1%	65/1%	80/1%	0.1						
